Measured values: ChEMBL document CHEMBL2417364, “Acetylated dammarane-type bisdesmosides from Combretum inflatum” (J Nat Prod, 2013)

What was measured:
Escherichia coli = assay: Inhibition of biofilm formation in Escherichia coli UTI89 after 72 hrs by crystal violet staining; format: functional, organism-based; conditions: UTI89, 72 h
Staphylococcus aureus = assay: Antibacterial activity against methicillin-resistant Staphylococcus aureus clinical isolate 108 at 16 ug/ml after 24 hrs by broth microdilution method; format: functional
NCI-H460 = assay: Cytotoxicity against human NCI-H460 cells after 72 hrs; format: functional, cell-based; conditions: NCI-H460, 72 h

Row | SMILES | IC50 (Escherichia coli) [µg/mL] | Activity (Staphylococcus aureus) [%] | IC50 (NCI-H460) [µM]
1 | CC(=O)O[C@@H]1[C@H](O[C@@H]2O[C@H](C)[C@H](O)[C@H](O)[C@H]2O)C[C@]2(C)[C@H]3[C@H](O[C@@H]4O[C@H](C)[C@H](O)[C@H](O)[C@H]4O)C[C@@H]4[C@@H]([C@](C)(O)CCCC(C)(C)O)CC[C@@]4(C)[C@]3(C)CC[C@H]2C1(C)C | ≥ 30 |  | 
2 | CC(=O)O[C@@H]1[C@H](O[C@@H]2O[C@H](C)[C@@H](O)[C@H](O)[C@H]2O)C[C@]2(C)[C@H]3[C@H](O[C@@H]4O[C@H](C)[C@H](O)[C@H](O)[C@H]4O)C[C@@H]4[C@@H]([C@](C)(O)CCCC(C)(C)O)CC[C@@]4(C)[C@]3(C)CC[C@H]2C1(C)C | ≥ 30 |  | 
3 | CC(=O)O[C@@H]1[C@H](O[C@@H]2O[C@H](C)[C@H](O)[C@H](O)[C@H]2O)C[C@]2(C)[C@H]3[C@H](O[C@@H]4O[C@H](C)[C@H](O)[C@H](O)[C@H]4O)C[C@@H]4[C@@H](/C(C)=C/CCC(C)(C)O)CC[C@@]4(C)[C@]3(C)CC[C@H]2C1(C)C | ≥ 30 | 71 | 
4 | CC(=O)O[C@@H]1[C@H](O[C@@H]2O[C@H](C)[C@@H](O)[C@H](O)[C@H]2O)C[C@]2(C)[C@H]3[C@H](O[C@@H]4O[C@H](C)[C@H](O)[C@H](O)[C@H]4O)C[C@@H]4[C@@H](/C(C)=C/CCC(C)(C)O)CC[C@@]4(C)[C@]3(C)CC[C@H]2C1(C)C | ≥ 30 | 64 | 
5 | CC(=O)O[C@@H]1[C@H](O[C@@H]2O[C@H](C)[C@H](O)[C@H](O)[C@H]2O)C[C@]2(C)[C@H]3[C@H](O[C@@H]4O[C@H](C)[C@H](O)[C@H](O)[C@H]4O)C[C@@H]4[C@@H]([C@](C)(O)CCC=C(C)C)CC[C@@]4(C)[C@]3(C)CC[C@H]2C1(C)C | ≥ 30 | 45 | 
6 | CC(=O)O[C@@H]1[C@H](O[C@@H]2O[C@H](C)[C@@H](O)[C@H](O)[C@H]2O)C[C@]2(C)[C@H]3[C@H](O[C@@H]4O[C@H](C)[C@H](O)[C@H](O)[C@H]4O)C[C@@H]4[C@@H]([C@](C)(O)CCC=C(C)C)CC[C@@]4(C)[C@]3(C)CC[C@H]2C1(C)C | ≥ 30 | 51 | 
7 | CC(=O)O[C@@H]1[C@H](O[C@@H]2O[C@H](C)[C@H](O)[C@H](O)[C@H]2O)C[C@]2(C)[C@H]3[C@H](O[C@@H]4O[C@H](C)[C@H](O)[C@H](O)[C@H]4O)C[C@@H]4[C@@H]([C@@](C)(O)CCC=C(C)C)CC[C@@]4(C)[C@]3(C)CC[C@H]2C1(C)C | ≥ 30 | 49 | 3.9
